# Results published in patent publication US11987646B2, “Immunomodulatory peptides” (Leidos, Inc., priority 2020, dated 2024).
# What was measured:
# PD1 = target: T1, PD1 (Homo sapiens, UniProt Q15116); test: PATHHUNTER checkpoint signaling assay (PD1 activation / SHP1 recruitment); type: cell-based; conditions: Jurkat cells expressing PD1 and SHP1 co-incubated with PDL1-presenting U2OS cells, 2 h RT; peptides at 20 μM and 100 μM, in duplicate; FIG. 1
# T1 construct: host or cells: Jurkat cells (PD1 and SHP1 EFC fusions), co-cultured with PDL1-presenting U2OS cells
# T1 sequence (Q15116 25-288): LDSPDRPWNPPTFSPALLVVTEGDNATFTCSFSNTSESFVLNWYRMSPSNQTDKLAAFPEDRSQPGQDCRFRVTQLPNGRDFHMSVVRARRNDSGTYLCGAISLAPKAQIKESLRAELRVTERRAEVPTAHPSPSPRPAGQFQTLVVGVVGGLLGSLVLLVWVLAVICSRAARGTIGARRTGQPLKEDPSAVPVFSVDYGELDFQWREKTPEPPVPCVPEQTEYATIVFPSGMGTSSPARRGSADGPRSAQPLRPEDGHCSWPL
# Experimental: Peptides were tested for their ability to inhibit the binding of PDL1 to PD1 using PATHHUNTER® checkpoint signaling assays (DiscoverX).
# Jurkat cells expressing PD1 and SHP1 proteins, each fused to a fragment of enzyme fragment complementation (EFC) system, were co-incubated with PDL1-presenting U2OS cells. […] Inhibitory peptides or antibodies added to the culture would reduce the light signal.
# Cells in co-culture were incubated at room temperature (RT) for 2 h (PD1 assay). The assay signal was generated using the PATHHUNTER® Bioassay Detection kit. FoLD01 (SEQ ID NO:1), LD10 (SEQ ID NO:5), and LD12 (SEQ ID NO:6) peptides were tested in duplicate at two concentrations, 20 μM and 100 μM. Peptides were dissolved in water or DMSO and diluted in assay buffer.
# Microplates were read following signal generation using a PerkinElmer ENVISION™ instrument for chemiluminescent signal detection. The percentage of inhibition efficacy was calculated using the following formula, in which “RLU” means relative light units: […]
# [1] = system: IFNγ-secreting antigen-specific CD8+ T cells; test: AdPyCS mouse model, IFNγ ELISPOT of spleen cells; type: in vivo; conditions: mice immunized i.m. with AdPyCSP, peptide subcutaneously 1 μg, 10 μg; spleens ten days post-injection; relative to AdPyCS-only; one-way ANOVA; FIG. 2
# Experimental: Groups of five mice were immunized intramuscularly with a recombinant replication defective adenovirus expressing the Plasmodium yoelli circumsporozoite protein (AdPyCSP) and then treated subcutaneously with peptides LD10da ([…], in which the first amino acid is a D-amino acid, 1 μg), FoLD01 (1 μg, 10 μg), or an anti-PD1 monoclonal antibody (10 μg). Ten days post-injection, mice were euthanized and individual spleens removed. The number of IFNγ-secreting antigen-specific CD8+ T cells were determined using an ELISPOT assay (FIG. 2).
# [2] = system: MC38 (colon carcinoma) cells; test: MC38 tumor model; type: in vivo, mice; conditions: intra-tumorally 2× a week, 50 μg dose, normalized to day 0, Mann-Whitney test, P value 0.0499
# Experimental: Mice were injected subcutaneously with 1×10^6 MC38 (colon carcinoma) cells and tumor volumes were measured on day 2, 5, 9, 12, and 16 (end of study) and normalized to day 0 values for each animal. When the mean tumor size reached approximately 80-120 mm^3, mice were randomized and treatment was started. Peptides were tested in an MC38 tumor model. FoLD01 peptide was administered intra-tumorally 2× a week (50 μg dose). Monoclonal antibodies were administered intraperitoneally 2× a week (5 mg/kg (anti-CTLA4) and 10 mg/kg (anti-PD1) dose). Statistical test used: Unpaired, non-parametric, two-tailed Mann-Whitney test. Control used: intra-tumor injection of DMSO diluted in PBS (for FoLD01 injected intra-tumorally).
# [3] = system: Pan02 (pancreatic adenocarcinoma) cells; test: Pan02 tumor model; type: in vivo, mice; conditions: intra-tumorally 2× a week, 50 μg dose, normalized to day 0, Mann-Whitney test
# Experimental: Mice were injected subcutaneously with 3×10^6 Pan02 (pancreatic adenocarcinoma) cells in the right rear flank. Tumor volumes were measured at least twice weekly in two dimensions using a caliper. When the mean tumor size reached approximately 80-120 mm^3, mice were randomized and treatment was started. FoLD04 was administered intra-tumorally 2× a week (50 μg dose). Monoclonal antibodies were administered intraperitoneally 2× a week (5 mg/kg (anti-CTLA4) and 10 mg/kg (anti-PD1) dose).
# Tumor volumes were measured on day 4, 7, 11, 14, 18, 21, 25 and 27 (end of study) and normalized to day 0 values for each animal. Statistical test used: Unpaired, non-parametric, two-tailed Mann-Whitney test.
# Control used: intra-tumor injection of DMSO diluted in PBS (for FoLD04 injected intra-tumorally).
Substance,inhibition of PD1-PDL1 interaction (percentage of inhibition efficacy) (PD1),number of IFNγ-secreting antigen-specific CD8+ T cells [1],tumor volume relative to intra-tumoral DMSO/PBS control [2],tumor volume relative to DMSO/PBS IT control [3]
"FoLD01: peptide, amino acid sequence STNQVSALRVNILFPLSQ (SEQ ID NO:1) (FoLD01 peptide)",inhibited PD1-PDL1 interaction to a greater extent than peptides LD10 and LD12,enhances the number of antigen-specific CD8+ T cells relative to stimulation with antigen only,significantly decreased tumor volume,
"FoLD04: peptide, amino acid sequence QVSALRVNILF (SEQ ID NO:4) (listed as Fusarium oxysporum)",,,,significantly decreased tumor volume
